System: glucose-challenged animal models of diabetes
Assay: Glucose-challenged animal models of diabetes, circulating insulin (FIG. 1)
Format: in vivo
Settings: glucose challenge, treated animals relative to control animals
Description: The following example describes how compounds can be evaluated in vivo in glucose-challenged animal models.
Art-recognized animal models of diabetes, such as type 2 diabetes, include diet-induced obese C57BL/6 (“B6”) mice and ob/ob mice. See, e.g., Breyer et al., J. Am. Soc. Nephrol. 16:27-45 (2005) and references cited therein.
Rats (aged 5-20) weeks or mice (aged 6-20 weeks) are fasted overnight beginning at 4 pm. Between 9 and 10 am, glucose levels are determined with a glucometer using whole blood samples removed from the tail. The animals are placed into control and treatment groups having similar averages of glucose levels and body weights or similar averages of body weights (B6 mice). Animals are pre-dosed with vehicle (control group) or test article (5-10 mL/kg, p.o., s.c. or i.p.) and then challenged with glucose (1 g/kg, p.o. or i.p.). Blood samples are then collected from the tail and assay for glucose and insulin levels.

Q: Which circulating insulin levels does the source give for `CCCc1c(C(=O)NC(C)c2ccncc2)cnn1-c1ncc(C)c(-c2cccs2)n1` (stereo not shown) [1-[5-Methyl-4-(2-thienyl)pyrimidin-2-yl]-5-propyl-N-(1-pyridin-4-ylethyl)-1H-pyrazole-4-carboxamide] here?
A: increases in circulating insulin levels

System: C57B6 mice
Assay: Glucose lowering effect after oral glucose challenge in C57B6 mice
Format: in vivo
Settings: male C57B6 mice, p.o. 30 minutes before oral glucose 3 g/kg; blood glucose before, 20 and 50 minutes after challenge; relative to control group
Description: The following example describes the glucose lowering effect of compounds observed in vivo.
Male C57B6 mice were placed into control and treatment groups having similar averages of body weights. Then, animals were dosed with vehicle (control group) or test article (5 ml/kg, p.o.). Thirty minutes after dosing, glucose (3 g/kg) was orally administered in each animal. Blood samples were collected just before, 20 minutes and 50 minutes after glucose challenge and glucose concentrations in the samples was assessed. The values in Table 2 represent the observed % AUC reduction of blood glucose in the treated animals relative to the control group.

Q: How did the “% AUC reduction in glucose levels” value turn out when `COCc1c(C(=O)NCc2c(CO)ncn2C)cnn1-c1ncc(C)c(-c2ccoc2)n1` [1-[4-(3-Furyl)-5-methylpyrimidin-2-yl]-N-[{4-(hydroxymethyl)-1-methyl-1H-imidazol-5-yl]methyl}-5-(methoxymethyl)-1H-pyrazole-4-carboxamide] was run?
A: 29%

Q: With `CCCc1c(C(=O)NCc2c(CO)ncn2C)cnn1-c1ncc(C)c(-c2ccoc2)n1` [1-[4-(3-Furyl)-5-methylpyrimidin-2-yl]-N-{[4-(hydroxymethyl)-1-methyl-1H-imidazol-5-yl]methyl}-5-propyl-1H-pyrazole-4-carboxamide] as the compound, how does the “% AUC reduction in glucose levels” value read?
A: 19%

Q: Which “% AUC reduction in glucose levels” value does the source give for `CCOCc1c(C(=O)NCc2cncn2C)cnn1-c1ncc(C)c(NC2CCCCC2)n1` [1-[4-(Cyclohexylamino)-5-methylpyrimidin-2-yl]-5-(ethoxymethyl)-N-[(1-methyl-1H-imidazol-5-yl)methyl]-1H-pyrazole-4-carboxamide] here?
A: 42%

Q: With `CCOCc1c(C(=O)NCc2c(CO)ncn2C)cnn1-c1ncc(Cl)c(-c2cccs2)n1` [1-[5-Chloro-4-(2-thienyl)pyrimidin-2-yl]-5-(ethoxymethyl)-N-{[4-(hydroxymethyl)-1-methyl-1H-imidazol-5-yl]methyl}-1H-pyrazole-4-carboxamide] as the compound, how does the “% AUC reduction in glucose levels” value read?
A: 41%

Q: How did the “% AUC reduction in glucose levels” value turn out when `CCCCc1c(C(=O)NCc2c(C)ncn2C(C)(C)C(=O)O)cnn1-c1ncc(C)c(-c2cccs2)n1` [2-(5-{[({5-Butyl-1-[5-methyl-4-(2-thienyl)pyrimidin-2-yl]-1H-pyrazol-4-yl}carbonyl)amino]methyl}-4-methyl-1H-imidazol-1-yl)-2-methylpropanoic acid] was run?
A: 15%

Q: Which “% AUC reduction in glucose levels” value does the source give for `COCCc1c(C(=O)NCc2cncn2C)cnn1-c1ncc(C)c(-c2cccs2)n1` [5-(2-Methoxyethyl)-N-[(1-methyl-1H-imidazol-5-yl)methyl]-1-[5-methyl-4-(2-thienyl)pyrimidin-2-yl]-1H-pyrazole-4-carboxamide] here?
A: 25%

Q: With `CCOCc1c(C(=O)NCc2cncn2C)cnn1-c1ncc(C)c(-c2ccco2)n1` [5-(Ethoxymethyl)-1-[4-(2-furyl)-5-methylpyrimidin-2-yl]-N-[(1-methyl-1H-imidazol-5-yl)methyl]-1H-pyrazole-4-carboxamide] as the compound, how does the “% AUC reduction in glucose levels” value read?
A: 51%

Q: How did the “% AUC reduction in glucose levels” value turn out when `CCOCc1c(C(=O)NCc2cncn2C)cnn1-c1ncc(C)c(N2CCCCC2)n1` [5-(Ethoxymethyl)-N-((1-methyl-1H-imidazol-5-yl)methyl)-1-(5-methyl-4-(piperidin-1-yl)pyrimidin-2-yl)-1H-pyrazole-4-carboxamide] was run?
A: 42%

Q: Which “% AUC reduction in glucose levels” value does the source give for `CCOCc1c(C(=O)NCc2cncn2C)cnn1-c1ncc(C)c(-c2cccs2)n1` [5-(Ethoxymethyl)-N-((1-methyl-1H-imidazol-5-yl)methyl)-1-(5-methyl-4-(thiophen-2-yl)pyrimidin-2-yl)-1H-pyrazole-4-carboxamide] here?
A: 16%

Q: For `CCOCc1c(C(=O)NCc2cncn2C)cnn1-c1ncc(C)c(-c2ccccc2)n1` [5-(Ethoxymethyl)-N-[(1-methyl-1H-imidazol-5-yl)methyl]-1-(5-methyl-4-phenylpyrimidin-2-yl)-1H-pyrazole-4-carboxamide], which “% AUC reduction in glucose levels” value is on record?
A: 35%

Q: For `CCOCc1c(C(=O)NCc2cncn2C)cnn1-c1ncc(C)c(N2CCCC2)n1` [5-(Ethoxymethyl)-N-[(1-methyl-1H-imidazol-5-yl)methyl]-1-(5-methyl-4-pyrrolidin-1-ylpyrimidin-2-yl)-1H-pyrazole-4-carboxamide], which “% AUC reduction in glucose levels” value is on record?
A: 18%

Q: How did the “% AUC reduction in glucose levels” value turn out when `CCOCc1c(C(=O)NCc2cncn2C)cnn1-c1ncc(C)c(-c2nccs2)n1` [5-(Ethoxymethyl)-N-[(1-methyl-1H-imidazol-5-yl)methyl]-1-[5-methyl-4-(1,3-thiazol-2-yl)pyrimidin-2-yl]-1H-pyrazole-4-carboxamide] was run?
A: 41%

Q: Which “% AUC reduction in glucose levels” value does the source give for `CCOCc1c(C(=O)NCc2cncn2C)cnn1-c1ncc(C)c(N2CC(F)(F)C(F)(F)C2)n1` [5-(Ethoxymethyl)-N-[(1-methyl-1H-imidazol-5-yl)methyl]-1-[5-methyl-4-(3,3,4,4-tetrafluoropyrrolidin-1-yl)pyrimidin-2-yl]-1H-pyrazole-4-carboxamide] here?
A: 11%

Q: How did the “% AUC reduction in glucose levels” value turn out when `CCOCc1c(C(=O)NCc2cncn2C)cnn1-c1ncc(C)c(-c2ccsc2)n1` [5-(Ethoxymethyl)-N-[(1-methyl-1H-imidazol-5-yl)methyl]-1-[5-methyl-4-(3-thienyl)pyrimidin-2-yl]-1H-pyrazole-4-carboxamide] was run?
A: 51%

Q: Which “% AUC reduction in glucose levels” value does the source give for `CCOCc1c(C(=O)NCc2c(CO)ncn2C)cnn1-c1ncc(C)c(-c2cccs2)n1` [5-(Ethoxymethyl)-N-{[4-(hydroxymethyl)-1-methyl-1H-imidazol-5-yl]methyl}-1-[5-methyl-4-(2-thienyl)pyrimidin-2-yl]-1H-pyrazole-4-carboxamide] here?
A: 35%

Q: For `CCCCc1c(C(=O)NCc2cnc3ccccn23)cnn1-c1ncc(Cl)c(NC2CC2)n1` [5-Butyl-1-[5-chloro-4-(cyclopropylamino)pyrimidin-2-yl]-N-(imidazo[1,2-a]pyridin-3-ylmethyl)-1H-pyrazole-4-carboxamide], which “% AUC reduction in glucose levels” value is on record?
A: 32%

Q: With `CCCCc1c(C(=O)NCc2cncn2C)cnn1-c1ncc(Cl)c(NC2CC2)n1` [5-Butyl-1-[5-chloro-4-(cyclopropylamino)pyrimidin-2-yl]-N-[(1-methyl-1H-imidazol-5-yl)methyl]-1H-pyrazole-4-carboxamide] as the compound, how does the “% AUC reduction in glucose levels” value read?
A: 7%

Q: For `CCCCc1c(C(=O)NCc2cnc3ccccn23)cnn1-c1ncc(C)c(N2CCCC2)n1` [5-Butyl-N-(imidazo[1,2-a]pyridin-3-ylmethyl)-1-(5-methyl-4-pyrrolidin-1-ylpyrimidin-2-yl)-1H-pyrazole-4-carboxamide], which “% AUC reduction in glucose levels” value is on record?
A: 34%

Q: With `CCCCc1c(C(=O)NCc2c(C)nc3ccccn23)cnn1-c1ncc(C)c(-c2cccs2)n1` [5-Butyl-N-[(2-methylimidazo[1,2-a]pyridin-3-yl)methyl]-1-[5-methyl-4-(2-thienyl)pyrimidin-2-yl]-1H-pyrazole-4-carboxamide] as the compound, how does the “% AUC reduction in glucose levels” value read?
A: 35%

Q: Which “% AUC reduction in glucose levels” value does the source give for `CCCCc1c(C(=O)NCc2c(C)ncn2CC(=O)O)cnn1-c1ncc(C)c(-c2cccs2)n1` [(5-{[({5-Butyl-1-[5-methyl-4-(2-thienyl)pyrimidin-2-yl]-1H-pyrazol-4-yl}carbonyl)amino]methyl}-4-methyl-1H-imidazol-1-yl)acetic acid] here?
A: 19%

Q: How did the “% AUC reduction in glucose levels” value turn out when `CCCCc1c(C(=O)NCc2cnc3cc(C(=O)OC)ccn23)cnn1-c1ncc(Cl)c(NC2CC2)n1` [Methyl 3-{[({5-butyl-1-[5-chloro-4-(cyclopropylamino)pyrimidin-2-yl]-1H-pyrazol-4-yl}carbonyl)amino]methyl}imidazo[1,2-a]pyridine-7-carboxylate] was run?
A: 24%

Q: With `CCCc1c(C(=O)NCc2c(CO)ncn2C)cnn1-c1ncc(C)c(N2CCOCC2)n1` [N-{[4-(Hydroxymethyl)-1-methyl-1H-imidazol-5-yl]methyl}-1-(5-methyl-4-morpholin-4-ylpyrimidin-2-yl)-5-propyl-1H-pyrazole-4-carboxamide] as the compound, how does the “% AUC reduction in glucose levels” value read?
A: 6%

Q: How did the “% AUC reduction in glucose levels” value turn out when `CCCc1c(C(=O)NCc2c(CO)ncn2C)cnn1-c1ncc(C)c(-c2cccs2)n1` [N-{[4-(Hydroxymethyl)-1-methyl-1H-imidazol-5-yl]methyl}-1-[5-methyl-4-(2-thienyl)pyrimidin-2-yl]-5-propyl-1H-pyrazole-4-carboxamide] was run?
A: 35%

Q: How did the “% AUC reduction in glucose levels” value turn out when `COCc1c(C(=O)NCc2c(CO)ncn2C)cnn1-c1ncc(C)c(N2CCCCC2)n1` [N-{[4-(Hydroxymethyl)-1-methyl-1H-imidazol-5-yl]methyl}-5-(methoxymethyl)-1-(5-methyl-4-piperidin-1-ylpyrimidin-2-yl)-1H-pyrazole-4-carboxamide] was run?
A: 14%

Q: For `COCc1c(C(=O)NCc2c(CO)ncn2C)cnn1-c1ncc(C)c(-c2cccs2)n1` [N-{[4-(Hydroxymethyl)-1-methyl-1H-imidazol-5-yl]methyl}-5-(methoxymethyl)-1-[5-methyl-4-(2-thienyl)pyrimidin-2-yl]-1H-pyrazole-4-carboxamide], which “% AUC reduction in glucose levels” value is on record?
A: 14%

System: ob/ob mice
Assay: Increase of circulating insulin concentrations in treated ob/ob mice
Format: in vivo
Settings: male ob/ob mice, dose 10 mg/kg p.o., 10 minutes after dosing, relative to control group
Description: The results presented below exemplify that administration of the compounds as provided herein to an art-recognized animal model of human diabetes can lead to increased circulating insulin concentrations in the animal model.
Male ob/ob mice were weighed and bled from tail vein, and blood glucose levels were determined with a glucometer. Animals were placed into control and treatment groups having similar averages of glucose levels and body weights. In the morning of the following day, animals were dosed with vehicle (control group) or test article (5 ml/kg, p.o.). Blood samples were collected just before and 10 minutes after dosing, and the samples were assayed for insulin and glucose concentrations.
Table 1 provides exemplary data showing the increase of circulating insulin concentrations (expressed as ng/ml) in treated mice relative to control group at 10 minutes after dosing the treated mice. Concentrations of the exemplary compound tested in the mice are provided in the righthand column.

Q: How did the “Increase in Insulin” value turn out when `CCCc1c(C(=O)NC(C)c2ccncc2)cnn1-c1ncc(C)c(-c2cccs2)n1` (stereo not shown) [1-[5-Methyl-4-(2-thienyl)pyrimidin-2-yl]-5-propyl-N-(1-pyridin-4-ylethyl)-1H-pyrazole-4-carboxamide] was run?
A: 3.9 ng/mL

Q: For `CCCCc1c(C(=O)NCc2c(C)ncn2CC(=O)O)cnn1-c1ncc(C)c(-c2cccs2)n1` [(5-{[({5-Butyl-1-[5-methyl-4-(2-thienyl)pyrimidin-2-yl]-1H-pyrazol-4-yl}carbonyl)amino]methyl}-4-methyl-1H-imidazol-1-yl)acetic acid], which “Increase in Insulin” value is on record?
A: 3.9 ng/mL

— US8022061B2, “N-aryl pyrazole compounds, compositions, and methods for their use” (Amgen Inc., priority 2006, dated 2011)
